Measurements taken from ChEMBL document CHEMBL1147219, “Hyperatomarin, an antibacterial prenylated phloroglucinol from Hypericumatomarium ssp. degenii” (2003).
Converted amounts (≈) assume the structure as drawn.

Key:
Type in all cases: functional
Bacillus = test: Antibacterial activity against Bacillus IP 5832 after 24 hrs by agar dilution method
Staphylococcus aureus = test: Antibacterial activity against Staphylococcus aureus ATCC 25923 after 24 hrs by agar dilution method; settings: ATCC 25923, 24 h
Micrococcus luteus = test: Antibacterial activity against Micrococcus luteus ATCC 4698 after 24 hrs by agar dilution method; settings: ATCC 4698, 24 h
Bacillus subtilis = test: Antibacterial activity against Bacillus subtilis ATCC 6633 after 24 hrs by agar dilution method; settings: ATCC 6633, 24 h

`CC[C@H]1OC(=O)[C@H](C)[C@@H](O[C@H]2C[C@@](C)(OC)[C@@H](O)[C@H](C)O2)[C@H](C)[C@@H](O[C@@H]2O[C@H](C)C[C@H](N(C)C)[C@H]2O)[C@](C)(O)C[C@@H](C)C(=O)[C@H](C)[C@@H](O)[C@]1(C)O` [ERYTHROMYCIN] was tested, and the MIC (Bacillus) was 0.39 µg/mL (≈ 0.531 µM), the MIC (Staphylococcus aureus) was 0.2 µg/mL (≈ 0.273 µM) and the MIC (Micrococcus luteus) was 0.2 µg/mL (≈ 0.273 µM). The MIC (Bacillus subtilis) was 0.39 µg/mL (≈ 0.531 µM).

`CC(C)=CCC[C@@]1(C)[C@H](CC=C(C)C)C[C@@H]2C(=O)C(C(=O)C(C)C)=C(O)[C@H]1C2=O` [HYPERATOMARIN] gave an MIC (Bacillus) of 1.56 µg/mL (≈ 3.89 µM), an MIC (Staphylococcus aureus) of 1.56 µg/mL (≈ 3.89 µM) and an MIC (Micrococcus luteus) of 1.56 µg/mL (≈ 3.89 µM). The MIC (Bacillus subtilis) was 3.12 µg/mL (≈ 7.79 µM).
